The values that follow come from PMC11939955, “Enhancing Antimicrobial Peptides from Frog Skin: A Rational Approach” (Biomolecules, 2025).

Values joined by “and” are separate entries in the source; they are usually repeats but may differ in a detail not shown here. Equal values may be shown once. Where no end group is shown, it is not given here.

Assay [1] is described as follows: Carboxyfluorescein (CF) release from LUVs. Also on record: species or system E. coli. Particulars: at the lowest peptide concentrations (8, 32, 50, 64 μM tested); 10 min, ex 490 nm/em 517 nm, duplicate. How it is done: Large unilamellar vesicles (LUVs) were prepared with the total lipid extract of E. coli (Avanti Polar Lipids). For this, an aliquot of 1 mg of lipids dissolved in chloroform was deposited into a glass tube and dried by evaporation with nitrogen (N2). The glass tube underwent vacuum treatment to eliminate any residual solvent traces. The lipids were then hydrated in 200 μL of a 5,6-carboxyfluorescein (CF) solution (Sigma-Aldrich) at a concentration of 49 mM, pH 8, and 431 mOsm/kgH2O through nine cycles of heating (70 °C for 30 s), vortexing (1 min), and freezing (ice bath for 30 s). A polycarbonate filter with a pore size of 100 nm was employed to standardize the liposome size. Twenty-one extrusion cycles were conducted at 40 °C through the filter, resulting in LUVs with an average diameter of 100 nm. Size exclusion chromatography (Sephadex G-25) was utilized to remove the CF outside of the LUVs.
The fluorescence spectra of the CF-filled LUVs were measured using a FluoroMax3 Jobin Yvon spectrofluorometer (Horiba Jobin Yvon; Edison, NJ, USA). A 200 μL aliquot of the LUVs containing 100 μM CF was utilized for the experiment. Excitation was performed over a wavelength range of 400 to 540 nm, with the emission recorded at 517 nm. The peptides were added at various final concentrations (8, 32, 50, and 64 μM), and the fluorescence was assessed 10 min after each addition. […]

Assay [2] relates to Human primary fibroblasts. Format: cell-based. Conditions: MTT, 24 h. Here is the method:
Human primary fibroblasts were kindly provided by CellSeq Solutions (Belo Horizonte, Brazil) and cultured in DMEM (Dulbecco’s Modified Eagle’s Medium, Gibco, Waltham, MA, USA) supplemented with 10% (v/v) fetal bovine serum (FBS; Gibco, Waltham, MA, USA) and a 1000 U/mL penicillin/streptomycin solution (Gibco, Waltham, MA, USA). The cells were maintained at 5% CO2, 37 °C, and 95% humidity.
To investigate the impact of the antimicrobial peptides hylin-Pul3, dHP3-31, dHP3-50, dHP3-50.137, dHP3-50.190, dHP3-84, and dHP3-84.39 on primary human fibroblast proliferation and viability, the 3-(4,5-dimethylthiazol-2-yl)-2,5-diphenyl tetrazolium bromide (MTT) metabolization assay (Sigma Aldrich; Misuri, USA) was performed. Human fibroblast cells (7 × 10^3 cells/well) were plated in a 96-well plate and treated with 0.5, 1, 5, 10, 25, 50, and 100 μg/mL of each peptide for 24 h. After this period, the cells were incubated with 5 mg/mL MTT for 4 h. The formazan crystals formed were solubilized by adding dimethyl sulfoxide (DMSO). The absorbance was measured at 570 nm using a spectrophotometer (Multiskan™ FC Microplate Photometer; Thermo Fisher Scientific, Waltham, MA, USA).

Assay [3] deals with Escherichia coli (ATCC 25922). Format: cell-based. How it is done: (§1) Hylin-Pul3 and six derivatives (dHP3-31, dHP3-50, dHP3-50.137, dHP3-50.190, dHP3-84, and dHP3-84.39) were tested against two Gram-positive bacteria, Staphylococcus aureus (ATCC 25923) and Streptococcus mutans (ATCC 25175), as well as three Gram-negative bacteria: Escherichia coli (ATCC 25922), Klebsiella pneumoniae (ATCC 13883), and Acinetobacter baumannii (ATCC 13304). The minimal inhibitory concentration (MIC) was determined using the microbroth dilution.
(§2) The peptides were serially diluted in concentrations ranging 128 to 0.25 μM, with gentamicin serving as a positive control, which was serially diluted to concentrations of 20 to 0.04 μM. Bacterial cultures were prepared in Mueller–Hinton (MH) medium to achieve a final inoculum concentration of 5 × 10^5 CFU/mL. […] All tests were performed in duplicate and repeated across three independent experiments.

Assay [4] deals with Streptococcus mutans (ATCC 25175). Format: cell-based. How it is done:
as §1, §2

Assay [5] relates to Acinetobacter baumannii (ATCC 13304). Format: cell-based. How it is done: as §1, §2
Assay [6] deals with Klebsiella pneumoniae (ATCC 13883). The class given is cell-based. Conditions: ATCC 13883. How it is done:
as §1, §2

Assay [7] relates to Staphylococcus aureus (ATCC 25923). The class given is cell-based. Here is the method: as §1, §2
The nature of assay [8]: DPPH radical-scavenging activity. Conditions: peptides 0.1, 0.05, 0.025 mg/mL, 30 min dark 25 °C, absorbance 515 nm, triplicate. Here is the method:
A stock solution of 60 µM 1,1-diphenyl-2-picrylhydrazyl (DPPH) was prepared in ethanol, with its absorbance adjusted to 0.7 at 515 nm immediately before the assay using a Shimadzu 1240 UV–visible spectrophotometer (Kyoto, Japan). The peptides were dissolved in PBS, and 20 µL aliquots of each peptide solution were incubated with 180 µL of the ethanolic DPPH solution in triplicate, at final concentrations of 0.1, 0.05, and 0.025 mg/mL. For the negative control, 20 µL of PBS was mixed with 180 µL of the DPPH solution, while 20 µL of Trolox (6-hydroxy-2,5,7,8-tetramethylchroman-2-carboxylic acid) served as the positive control and standard. The mixtures were incubated in the dark at 25 °C for 30 min, after which, the absorbance was measured at 515 nm. The reduction in absorbance, indicative of DPPH-scavenging activity, was compared to a standard curve. The results were expressed as milligrams of Trolox equivalents per milligram of peptide (mg Trolox equivalents/mg of peptide).
For orientation: Loss of DPPH colour is used to gauge radical scavenging.

A further assay has as its system E. coli (ATCC 25922). In words: Synergistic checkerboard assay. Format: cell-based, Escherichia coli. Here is the method: Briefly, working solutions of the peptides were prepared and serially diluted by half across the rows and columns of a microplate, ensuring that each well contained a unique combination of peptide concentrations. The starting concentrations corresponded to the respective MIC values of each peptide, followed by two-fold serial dilutions.
Each well was filled with 50 µL of the peptide solution (individual or combined) and 50 µL of a bacterial suspension (1 × 10^6 CFU/mL), resulting in a final bacterial concentration of 5 × 10^5 CFU/mL. The individual peptide solutions served as positive controls, while the MH medium was employed as a negative control. The microplates were incubated at 37 °C overnight. The test was performed in three independent experiments. The fractional inhibitory concentrations index (ΣFIC) was calculated using the following equation: (1) ∑FIC =MIC(A) in combination/MIC(A) alone+MIC(B) in combination /MIC(B) alone
The FIC index (ΣFIC) was interpreted as follows: ΣFIC ≤ 0.5 indicated synergy; 0.5 < ΣFIC ≤ 4 indicated no effect; and 4 < ΣFIC indicated antagonism.

A short description of the next assay: ABTS assay. Particulars: peptides 0.05, 0.025, 0.0125 mg/mL, 1 h dark, absorbance 734 nm, triplicate. How it is done:
The 2,2-azinobis-3-ethylbenzothiazoline-6-sulfonic acid (ABTS^+) free radical-scavenging activity was determined following the method in [38]. The ABTS⁺ radical cation was generated by diluting a 245 mM ammonium persulfate (APS) solution at a ratio of 1:100 with a 7 mM ABTS solution, followed by overnight incubation in the dark at room temperature. The ABTS^+ solution was then diluted with water to obtain an absorbance of 0.70 at 734 nm immediately before the assay using a Shimadzu 1240 UV-visible spectrophotometer (Kyoto, Japan). The peptides were dissolved in PBS, and 10 µL aliquots of each peptide solution were incubated with 190 µL of the ABTS^+ solution in triplicate, at final concentrations of 0.05, 0.025, and 0.0125 mg/mL. After a 1 h incubation in the dark, the absorbance was measured at 734 nm. The radical-scavenging activity was quantified against a standard curve, with the results expressed as milligrams of Trolox equivalents per milligram of peptide.

Setting [9] is: versus parent peptide hylin-Pul3.

As for RRGKLIPRLAKAIGRLIRK-OH [dHP3-84.39], the “CF release from LUVs” value in assay [1] stood at 50%. Further, the “Concentration at which fibroblast viability increased (proliferative effect)” value in assay [2] was 5 μg/mL and 2.3 µM. Also, the “Antimicrobial Activity (MIC) E. coli ATCC 25922” value in assay [3] came to 6.6 ± 4.8 µM. Besides, the “Antimicrobial Activity (MIC) S. mutans ATCC 25175” value in assay [4] is above 64 µM. Moreover, the “Antimicrobial Activity (MIC) A. baumannii ATCC 13304” value in assay [5] amounted to 16.0 ± 0.0 µM. Further, the “Antimicrobial Activity (MIC) K. pneumoniae ATCC 13883” value in assay [6] amounted to 64.0 ± 0.0 µM. The “Antimicrobial Activity (MIC) S. aureus ATCC 25923” value in assay [7] is listed as 26.6 ± 8.3 µM.

Regarding RAGALWPAIRGAIKKIIKK-NH2 [dHP3-50.137], in [8], the “Antioxidant activity DPPH” value is on record as “did not reveal significant activity”. The “CF release from LUVs” value in assay [1] is given as 50%. The “Antimicrobial Activity (MIC) E. coli ATCC 25922” value in assay [3] turned out to be 4.0 ± 0.0 µM. In [3] (strain not given, largest reduction), the “Reduction in MIC of up to (Gram-negative strains) compared to hylin-Pul3” value is reported as “up to 8 fold”. In assay [3] (setting [9]), the “Reduction in MIC against E. coli compared to hylin-Pul3” value amounted to 4 fold. For the same substance, in assay [4], the “Antimicrobial Activity (MIC) S. mutans ATCC 25175” value worked out at 32.0 ± 0.0 µM. Moreover, the “Antimicrobial Activity (MIC) A. baumannii ATCC 13304” value in assay [5] is 8.0 ± 0.0 µM. The “Reduction in MIC against A. baumannii compared to hylin-Pul3” value in assay [5] (setting [9]) was 4 fold. For the same substance, in [6], the “Antimicrobial Activity (MIC) K. pneumoniae ATCC 13883” value was found to be 53.3 ± 16.5 µM. The “Antimicrobial Activity (MIC) S. aureus ATCC 25923” value in assay [7] is 64.0 ± 0.0 µM. In the assay with E. coli (ATCC 25922) (combination of dHP3-84 and dHP3-50.137, E. coli ATCC 25922, 5 × 10^5 CFU/mL, 37 °C overnight, three independent experiments, ΣFIC ≤ 0.5 = synergy), the “Synergistic Activity, FIC Index (ΣFIC)” value amounted to 0.5. In the assay on E. coli (ATCC 25922) (dHP3-84 + dHP3-50.137, E. coli), the “Improvement of combined activity compared to each peptide individually” value was 2 fold. In “ABTS assay”, the “Antioxidant activity ABTS” value amounted to 0.08 mg Trolox/mg.
